According to PMC8550792, “Evolution of kinase polypharmacology across HSP90 drug discovery” (Cell Chemical Biology, 2021):

Tests used:
Assay in all cases: biochemical
Type in all cases: biochemical
382 unique human kinases [1] = target: T1, 382 unique human kinases (Homo sapiens, UniProt P19525); details: kinase EIF2AK2, compound 10 uM; for remaining activity at 10 µM: read-out: % Enzyme Activity (relative to DMSO controls)
T1 construct: purchased Reaction Biology (HotSpot contract assay)

382 unique human kinases [2] = target: T2, 382 unique human kinases (Homo sapiens, UniProt P22455, V550L); details: FGFR4 (V550L), 10 uM; for remaining activity at 10 µM: read-out: % Enzyme Activity (relative to DMSO controls)
T2 construct: purchased Reaction Biology (HotSpot contract assay)
T2 sequence (P22455 22-802 V550L): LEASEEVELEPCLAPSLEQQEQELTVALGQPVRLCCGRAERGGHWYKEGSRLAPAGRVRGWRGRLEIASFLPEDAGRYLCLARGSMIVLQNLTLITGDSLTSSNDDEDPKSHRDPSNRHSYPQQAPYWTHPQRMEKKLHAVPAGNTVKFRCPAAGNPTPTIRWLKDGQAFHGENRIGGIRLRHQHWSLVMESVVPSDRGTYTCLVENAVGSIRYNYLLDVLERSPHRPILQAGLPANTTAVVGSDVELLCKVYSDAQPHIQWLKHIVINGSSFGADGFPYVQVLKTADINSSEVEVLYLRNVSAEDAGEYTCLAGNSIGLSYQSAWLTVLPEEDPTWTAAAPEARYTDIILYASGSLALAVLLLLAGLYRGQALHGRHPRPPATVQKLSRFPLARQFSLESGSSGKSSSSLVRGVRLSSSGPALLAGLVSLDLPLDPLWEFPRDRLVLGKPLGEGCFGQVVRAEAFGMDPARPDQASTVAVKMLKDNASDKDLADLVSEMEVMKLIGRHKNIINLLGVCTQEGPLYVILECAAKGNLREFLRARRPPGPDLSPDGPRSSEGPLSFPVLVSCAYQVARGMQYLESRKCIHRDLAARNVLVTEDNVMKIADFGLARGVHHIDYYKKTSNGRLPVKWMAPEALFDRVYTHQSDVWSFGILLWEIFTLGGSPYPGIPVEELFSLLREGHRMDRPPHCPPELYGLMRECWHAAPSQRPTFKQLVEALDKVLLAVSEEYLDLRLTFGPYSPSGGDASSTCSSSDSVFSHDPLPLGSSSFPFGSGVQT

382 unique human kinases [3] = target: T3, 382 unique human kinases (Homo sapiens, UniProt Q8TDC3); details: kinase BRSK1, compound 10 uM; for remaining activity at 10 µM: read-out: % Enzyme Activity (relative to DMSO controls)
T3 construct: purchased Reaction Biology (HotSpot contract assay)
T3 sequence (Q8TDC3 1-778): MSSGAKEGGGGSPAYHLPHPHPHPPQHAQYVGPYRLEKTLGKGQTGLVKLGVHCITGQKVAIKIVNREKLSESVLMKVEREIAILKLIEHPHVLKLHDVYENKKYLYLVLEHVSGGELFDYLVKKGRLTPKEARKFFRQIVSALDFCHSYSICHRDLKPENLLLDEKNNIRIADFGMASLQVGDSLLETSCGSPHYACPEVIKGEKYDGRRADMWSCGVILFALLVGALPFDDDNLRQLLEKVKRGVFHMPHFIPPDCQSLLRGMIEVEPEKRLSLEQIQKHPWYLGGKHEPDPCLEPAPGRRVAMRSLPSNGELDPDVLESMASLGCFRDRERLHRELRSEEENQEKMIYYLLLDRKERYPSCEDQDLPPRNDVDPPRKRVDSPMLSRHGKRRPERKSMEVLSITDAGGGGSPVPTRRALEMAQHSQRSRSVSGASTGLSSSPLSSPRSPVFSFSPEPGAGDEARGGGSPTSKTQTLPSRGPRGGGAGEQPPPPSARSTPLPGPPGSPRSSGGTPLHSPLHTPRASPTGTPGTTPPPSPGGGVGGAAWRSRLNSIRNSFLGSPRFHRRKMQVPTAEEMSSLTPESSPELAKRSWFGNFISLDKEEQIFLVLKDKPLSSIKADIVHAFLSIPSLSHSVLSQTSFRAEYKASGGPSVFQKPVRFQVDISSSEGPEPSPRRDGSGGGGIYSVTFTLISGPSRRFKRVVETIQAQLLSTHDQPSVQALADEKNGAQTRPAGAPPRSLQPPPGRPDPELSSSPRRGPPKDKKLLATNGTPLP

382 unique human kinases [4] = target: T4, 382 unique human kinases (Homo sapiens, UniProt Q99759); details: MEKK3, compound at 10 uM, duplicate values; for remaining activity at 10 µM: read-out: % Enzyme Activity (relative to DMSO controls)
T4 construct: purchased Reaction Biology (HotSpot contract assay)
T4 sequence (Q99759 1-626): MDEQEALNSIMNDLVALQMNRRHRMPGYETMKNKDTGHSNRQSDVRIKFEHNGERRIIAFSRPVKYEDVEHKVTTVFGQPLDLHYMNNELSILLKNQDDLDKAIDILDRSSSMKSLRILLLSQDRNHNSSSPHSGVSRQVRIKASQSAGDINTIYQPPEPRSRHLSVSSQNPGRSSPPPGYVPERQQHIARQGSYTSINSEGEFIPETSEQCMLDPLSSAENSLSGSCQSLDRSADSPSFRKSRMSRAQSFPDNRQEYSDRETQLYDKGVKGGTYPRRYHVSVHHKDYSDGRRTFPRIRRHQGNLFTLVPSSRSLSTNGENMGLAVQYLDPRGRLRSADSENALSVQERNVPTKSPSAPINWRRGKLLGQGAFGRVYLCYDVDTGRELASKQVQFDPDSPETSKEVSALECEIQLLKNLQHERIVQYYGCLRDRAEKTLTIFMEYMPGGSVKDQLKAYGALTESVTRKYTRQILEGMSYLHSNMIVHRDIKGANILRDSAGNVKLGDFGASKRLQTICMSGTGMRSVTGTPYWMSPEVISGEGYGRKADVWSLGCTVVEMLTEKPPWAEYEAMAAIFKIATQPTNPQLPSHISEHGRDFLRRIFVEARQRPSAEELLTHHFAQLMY

382 unique human kinases [5] = target: T5, 382 unique human kinases (Homo sapiens, UniProt Q9UM73, F1174L); details: ALK (F1174L), 10 uM; for remaining activity at 10 µM: read-out: % Enzyme Activity (relative to DMSO controls)
T5 construct: purchased Reaction Biology (HotSpot contract assay)
T5 sequence (Q9UM73 19-1620 F1174L): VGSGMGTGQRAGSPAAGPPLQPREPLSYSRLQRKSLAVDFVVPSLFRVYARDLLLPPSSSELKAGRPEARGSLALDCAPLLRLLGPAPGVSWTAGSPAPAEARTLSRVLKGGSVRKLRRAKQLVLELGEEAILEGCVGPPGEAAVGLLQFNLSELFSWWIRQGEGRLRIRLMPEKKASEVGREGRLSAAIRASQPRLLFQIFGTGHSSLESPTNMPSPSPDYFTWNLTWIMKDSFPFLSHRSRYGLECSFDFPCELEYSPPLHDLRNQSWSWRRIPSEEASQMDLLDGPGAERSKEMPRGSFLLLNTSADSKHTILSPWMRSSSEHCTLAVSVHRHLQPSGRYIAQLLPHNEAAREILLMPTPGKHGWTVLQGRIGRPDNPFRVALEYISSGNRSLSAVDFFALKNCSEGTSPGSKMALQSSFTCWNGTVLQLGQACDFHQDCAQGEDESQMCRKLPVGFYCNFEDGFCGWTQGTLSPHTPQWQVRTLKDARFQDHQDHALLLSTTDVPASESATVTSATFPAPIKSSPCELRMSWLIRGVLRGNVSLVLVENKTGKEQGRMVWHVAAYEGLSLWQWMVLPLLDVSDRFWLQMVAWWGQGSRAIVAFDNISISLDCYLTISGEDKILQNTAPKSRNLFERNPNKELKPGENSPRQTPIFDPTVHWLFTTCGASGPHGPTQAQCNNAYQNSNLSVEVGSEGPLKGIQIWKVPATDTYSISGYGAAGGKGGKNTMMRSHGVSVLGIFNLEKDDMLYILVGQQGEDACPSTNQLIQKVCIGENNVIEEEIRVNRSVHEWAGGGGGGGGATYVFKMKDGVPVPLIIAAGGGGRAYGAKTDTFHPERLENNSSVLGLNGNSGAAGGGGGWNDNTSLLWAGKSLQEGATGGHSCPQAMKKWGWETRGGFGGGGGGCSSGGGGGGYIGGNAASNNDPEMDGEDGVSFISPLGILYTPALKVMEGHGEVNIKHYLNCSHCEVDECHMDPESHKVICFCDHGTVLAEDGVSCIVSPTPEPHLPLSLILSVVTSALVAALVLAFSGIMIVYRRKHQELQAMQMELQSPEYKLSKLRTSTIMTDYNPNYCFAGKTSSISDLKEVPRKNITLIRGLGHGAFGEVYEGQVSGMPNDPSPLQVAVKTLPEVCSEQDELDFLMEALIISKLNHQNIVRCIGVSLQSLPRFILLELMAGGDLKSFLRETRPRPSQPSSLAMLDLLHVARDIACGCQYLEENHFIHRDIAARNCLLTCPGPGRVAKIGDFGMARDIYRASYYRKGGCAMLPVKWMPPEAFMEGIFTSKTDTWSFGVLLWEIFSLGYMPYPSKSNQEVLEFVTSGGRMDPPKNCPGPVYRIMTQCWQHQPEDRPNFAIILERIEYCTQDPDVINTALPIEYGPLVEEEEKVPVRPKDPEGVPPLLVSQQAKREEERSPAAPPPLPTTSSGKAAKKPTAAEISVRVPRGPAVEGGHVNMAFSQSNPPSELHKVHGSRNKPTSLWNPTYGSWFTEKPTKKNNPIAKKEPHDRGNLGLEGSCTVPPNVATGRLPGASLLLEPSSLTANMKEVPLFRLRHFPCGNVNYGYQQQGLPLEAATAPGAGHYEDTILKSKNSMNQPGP

382 unique human kinases [6] = target: T6, 382 unique human kinases (Homo sapiens, UniProt P36888); details: FLT3, [ATP] 50 µM, compound 10 uM; for remaining activity at 10 µM: read-out: % Enzyme Activity (relative to DMSO controls)
T6 construct: purchased Reaction Biology (HotSpot contract assay)
T6 sequence (P36888 27-993): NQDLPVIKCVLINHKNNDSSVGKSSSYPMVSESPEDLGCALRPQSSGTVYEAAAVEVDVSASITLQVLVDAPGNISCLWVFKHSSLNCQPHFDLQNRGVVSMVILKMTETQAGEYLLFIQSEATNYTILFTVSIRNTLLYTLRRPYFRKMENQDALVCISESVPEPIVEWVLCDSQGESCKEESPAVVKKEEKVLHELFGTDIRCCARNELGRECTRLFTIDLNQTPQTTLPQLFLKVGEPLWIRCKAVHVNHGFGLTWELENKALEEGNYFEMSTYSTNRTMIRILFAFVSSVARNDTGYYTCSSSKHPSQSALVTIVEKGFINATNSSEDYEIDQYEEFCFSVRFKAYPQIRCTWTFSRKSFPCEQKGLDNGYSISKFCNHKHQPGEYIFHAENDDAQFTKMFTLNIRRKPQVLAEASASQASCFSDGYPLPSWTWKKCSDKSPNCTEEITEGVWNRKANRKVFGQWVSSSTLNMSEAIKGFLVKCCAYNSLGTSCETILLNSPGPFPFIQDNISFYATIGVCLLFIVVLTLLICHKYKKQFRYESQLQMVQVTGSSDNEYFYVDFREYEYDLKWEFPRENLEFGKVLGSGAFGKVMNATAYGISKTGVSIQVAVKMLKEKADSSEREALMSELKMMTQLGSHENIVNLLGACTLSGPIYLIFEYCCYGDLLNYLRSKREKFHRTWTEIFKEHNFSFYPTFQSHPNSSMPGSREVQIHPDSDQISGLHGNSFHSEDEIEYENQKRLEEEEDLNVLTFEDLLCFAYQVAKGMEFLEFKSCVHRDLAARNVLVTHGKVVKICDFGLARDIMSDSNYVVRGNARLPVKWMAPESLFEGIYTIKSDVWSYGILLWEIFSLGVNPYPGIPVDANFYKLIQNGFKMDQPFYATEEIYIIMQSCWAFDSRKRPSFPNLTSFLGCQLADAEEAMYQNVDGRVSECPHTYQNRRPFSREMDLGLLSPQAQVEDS

382 unique human kinases [7] = target: T7, 382 unique human kinases (Homo sapiens, UniProt Q15349); details: RSK3, 10 uM; for remaining activity at 10 µM: read-out: % Enzyme Activity (relative to DMSO controls)
T7 construct: purchased Reaction Biology (HotSpot contract assay)
T7 sequence (Q15349 whole entry): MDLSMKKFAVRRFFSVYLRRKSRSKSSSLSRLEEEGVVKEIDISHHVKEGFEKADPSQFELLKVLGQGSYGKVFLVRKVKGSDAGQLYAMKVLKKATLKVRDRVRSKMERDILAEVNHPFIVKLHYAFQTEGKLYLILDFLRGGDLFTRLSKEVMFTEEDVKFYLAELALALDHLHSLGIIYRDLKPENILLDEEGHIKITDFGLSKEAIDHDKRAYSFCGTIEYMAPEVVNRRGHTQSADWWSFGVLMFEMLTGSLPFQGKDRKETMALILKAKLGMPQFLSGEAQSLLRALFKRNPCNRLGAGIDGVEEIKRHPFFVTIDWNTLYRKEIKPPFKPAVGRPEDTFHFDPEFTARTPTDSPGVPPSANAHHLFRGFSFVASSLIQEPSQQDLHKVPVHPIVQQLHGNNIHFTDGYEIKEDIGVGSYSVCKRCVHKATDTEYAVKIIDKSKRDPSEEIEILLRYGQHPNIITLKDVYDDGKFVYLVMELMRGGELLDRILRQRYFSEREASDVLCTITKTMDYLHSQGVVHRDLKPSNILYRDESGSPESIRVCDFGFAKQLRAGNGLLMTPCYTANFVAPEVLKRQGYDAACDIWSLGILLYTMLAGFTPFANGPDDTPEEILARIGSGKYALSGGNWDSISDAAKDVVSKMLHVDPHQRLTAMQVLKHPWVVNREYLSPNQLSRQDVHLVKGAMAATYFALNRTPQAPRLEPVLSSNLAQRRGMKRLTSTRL

382 unique human kinases [8] = target: T8, 382 unique human kinases (Homo sapiens, UniProt Q8N568); details: DCAMKL2, 10 uM; for remaining activity at 10 µM: read-out: % Enzyme Activity (relative to DMSO controls)
T8 construct: purchased Reaction Biology (HotSpot contract assay)
T8 sequence (Q8N568 whole entry): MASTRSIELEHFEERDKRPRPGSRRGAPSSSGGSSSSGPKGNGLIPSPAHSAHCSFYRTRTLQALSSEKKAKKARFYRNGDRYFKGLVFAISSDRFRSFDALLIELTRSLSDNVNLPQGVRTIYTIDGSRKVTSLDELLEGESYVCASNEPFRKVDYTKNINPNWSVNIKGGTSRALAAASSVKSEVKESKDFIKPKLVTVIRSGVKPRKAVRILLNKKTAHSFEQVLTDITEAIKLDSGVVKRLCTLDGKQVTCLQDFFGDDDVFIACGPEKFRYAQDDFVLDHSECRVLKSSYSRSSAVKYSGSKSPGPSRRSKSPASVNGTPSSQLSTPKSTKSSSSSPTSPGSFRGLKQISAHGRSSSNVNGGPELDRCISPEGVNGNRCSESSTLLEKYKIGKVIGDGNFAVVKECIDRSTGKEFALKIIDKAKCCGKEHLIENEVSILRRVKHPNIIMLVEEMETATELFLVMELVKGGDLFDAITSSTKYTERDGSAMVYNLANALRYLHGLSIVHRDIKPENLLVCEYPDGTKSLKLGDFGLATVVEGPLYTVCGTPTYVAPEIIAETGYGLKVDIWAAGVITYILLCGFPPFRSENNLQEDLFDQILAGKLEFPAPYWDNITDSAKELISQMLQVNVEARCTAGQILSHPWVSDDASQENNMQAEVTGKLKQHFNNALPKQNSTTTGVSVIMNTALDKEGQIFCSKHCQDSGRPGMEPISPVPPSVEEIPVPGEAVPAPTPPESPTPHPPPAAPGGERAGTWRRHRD

T1 sequence (P19525 whole entry): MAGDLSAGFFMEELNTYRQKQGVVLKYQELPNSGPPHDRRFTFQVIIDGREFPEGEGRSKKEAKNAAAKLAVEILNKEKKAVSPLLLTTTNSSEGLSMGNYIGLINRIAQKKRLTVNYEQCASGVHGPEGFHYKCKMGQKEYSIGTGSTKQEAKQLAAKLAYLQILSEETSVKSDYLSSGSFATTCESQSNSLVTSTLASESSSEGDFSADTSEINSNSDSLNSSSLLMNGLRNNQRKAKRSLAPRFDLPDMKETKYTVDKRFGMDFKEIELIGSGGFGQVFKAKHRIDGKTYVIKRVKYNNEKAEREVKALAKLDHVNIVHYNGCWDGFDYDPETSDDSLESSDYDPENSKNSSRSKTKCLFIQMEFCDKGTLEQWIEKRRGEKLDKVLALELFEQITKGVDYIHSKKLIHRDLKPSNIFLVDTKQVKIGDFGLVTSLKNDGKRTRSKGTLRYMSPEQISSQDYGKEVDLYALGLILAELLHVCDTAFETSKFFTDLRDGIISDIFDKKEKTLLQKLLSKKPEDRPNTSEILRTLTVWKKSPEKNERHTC

CC(C)c1cc(-c2n[nH]c(=O)n2-c2ccc3c(ccn3C)c2)c(O)cc1O [Ganetespib (STA9090)]
remaining activity at 10 µM (382 unique human kinases [1]): 90.5% | remaining activity at 10 µM (382 unique human kinases [2]): 76.1% | remaining activity at 10 µM (382 unique human kinases [3]): 81.4% | remaining activity at 10 µM (382 unique human kinases [4]): 106% | remaining activity at 10 µM (382 unique human kinases [5]): 63.6%

CC(C)c1cc(-c2n[nH]c(=O)n2-c2ccc3c(ccn3C)c2)c(O)cc1O [Ganetespib]
remaining activity at 10 µM (382 unique human kinases [6]): 30.4% | remaining activity at 10 µM (382 unique human kinases [7]): 119% | remaining activity at 10 µM (382 unique human kinases [8]): 96.7%

CCNC(=O)c1noc(-c2cc(C(C)C)c(O)cc2O)c1-c1ccc(CN2CCOCC2)cc1 [Luminespib (AUY-922)]
% Enzyme Activity (relative to DMSO controls) (382 unique human kinases [1]): 107.07% | remaining activity at 10 µM (382 unique human kinases [1]): 108% | % Enzyme Activity (relative to DMSO controls) (382 unique human kinases [2]): 101.11% | remaining activity at 10 µM (382 unique human kinases [2]): 101% | % Enzyme Activity (relative to DMSO controls) (382 unique human kinases [3]): 99.19% | remaining activity at 10 µM (382 unique human kinases [3]): 100% | % Enzyme Activity (relative to DMSO controls) (382 unique human kinases [4]): 120.79% | remaining activity at 10 µM (382 unique human kinases [4]): 122% | % Enzyme Activity (relative to DMSO controls) (382 unique human kinases [5]): 104.30% | remaining activity at 10 µM (382 unique human kinases [5]): 104%

CCNC(=O)c1noc(-c2cc(C(C)C)c(O)cc2O)c1-c1ccc(CN2CCOCC2)cc1 [Luminespib]
% Enzyme Activity (relative to DMSO controls) (382 unique human kinases [6]): 80.03% | remaining activity at 10 µM (382 unique human kinases [6]): 80.1% | % Enzyme Activity (relative to DMSO controls) (382 unique human kinases [7]): 94.51% | remaining activity at 10 µM (382 unique human kinases [7]): 95.2% | % Enzyme Activity (relative to DMSO controls) (382 unique human kinases [8]): 96.30% | remaining activity at 10 µM (382 unique human kinases [8]): 97.8%
